# Values quoted from earlier work as cited in US10292948B2 (Torrent Pharmaceuticals Limited, priority 2017, dated 2019).
# Key:
# [1] = pH dependent
compound,measurement,setting,value
"CC[C@@H](c1cccc(O)c1)[C@@H](C)CN(C)C.Cl [Tapentadol, 3-[(1R,2R)-3-(dimethylamino)-1-ethyl-2-methylpropyl]phenol]",time of maximum serum concentration,after oral dosing,around 1.25 hours
same,administered tapentadol metabolized (first-pass metabolism),oral administration,about 97%
same,bioavailability,oral administration,32%
same,time after administration at which absorption occurs,oral formulations,at least 45 minutes
same,solubility,[1],highly soluble
